Test results reported in US20230002334A1, “TRPM8 MODULATORS” (Givaudan SA, priority 2019, published 2023).

Target: T1, hTRPM8 (Homo sapiens, UniProt Q7Z2W7)
T1 construct: expressed in transfected cells
Assay: Assay on TRPM8 modulators: calcium imaging (Fluo-4, Flexstation) in HEK293 cell line stably expressing hTRPM8
Assay type: cell-based
Details: HEK293 cells stably expressing hTRPM8, calcium influx, sigmoidal dose-response fit; read-out: EC50
Summary of the method: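 Calcium influx monitored by Fluo-4 (2.7 μM with […] probenecid, 1 h 37 °C loading) in HEK293 cells stably expressing hTRPM8, in HEPES buffer pH 7.4 with 2 mM CaCl2. Fluorescence read 15 s before and 105 s after adding serial compound dilutions. Maximal activation relative to solvent and 31.6 μM menthol; EC50 from sigmoidal fit.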

T1 sequence (Q7Z2W7 whole entry): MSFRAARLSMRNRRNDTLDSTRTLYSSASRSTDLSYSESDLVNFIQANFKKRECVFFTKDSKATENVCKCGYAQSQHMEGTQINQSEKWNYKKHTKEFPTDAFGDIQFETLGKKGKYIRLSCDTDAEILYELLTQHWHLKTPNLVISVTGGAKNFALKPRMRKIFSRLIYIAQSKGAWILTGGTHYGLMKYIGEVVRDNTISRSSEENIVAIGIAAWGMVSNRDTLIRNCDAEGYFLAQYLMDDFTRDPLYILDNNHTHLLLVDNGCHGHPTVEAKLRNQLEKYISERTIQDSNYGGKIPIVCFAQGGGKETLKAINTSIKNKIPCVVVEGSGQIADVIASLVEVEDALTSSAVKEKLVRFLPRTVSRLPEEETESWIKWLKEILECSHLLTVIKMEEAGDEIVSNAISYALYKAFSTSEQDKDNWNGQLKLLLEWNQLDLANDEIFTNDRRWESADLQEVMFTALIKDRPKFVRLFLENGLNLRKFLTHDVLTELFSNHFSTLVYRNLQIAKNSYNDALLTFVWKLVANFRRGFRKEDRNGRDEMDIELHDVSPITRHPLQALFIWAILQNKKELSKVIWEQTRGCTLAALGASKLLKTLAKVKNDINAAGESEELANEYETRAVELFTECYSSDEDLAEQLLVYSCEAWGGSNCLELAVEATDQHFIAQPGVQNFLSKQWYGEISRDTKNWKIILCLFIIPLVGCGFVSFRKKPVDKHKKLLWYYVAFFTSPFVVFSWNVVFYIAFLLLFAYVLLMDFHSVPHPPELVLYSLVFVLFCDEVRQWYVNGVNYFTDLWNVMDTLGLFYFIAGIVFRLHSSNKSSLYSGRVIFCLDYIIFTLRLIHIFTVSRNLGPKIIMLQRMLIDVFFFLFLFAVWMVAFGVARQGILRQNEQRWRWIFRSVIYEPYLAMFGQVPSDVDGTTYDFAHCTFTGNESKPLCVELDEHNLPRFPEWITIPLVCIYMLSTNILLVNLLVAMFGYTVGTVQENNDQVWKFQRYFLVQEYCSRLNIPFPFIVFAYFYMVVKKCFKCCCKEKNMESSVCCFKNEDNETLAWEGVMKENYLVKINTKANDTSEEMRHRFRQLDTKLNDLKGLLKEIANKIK

Compound	EC50 [nM]
CC1CC(C)(c2cccnc2)CC2C1N(C)OC2(C)C (stereo not drawn) [Compound 3, 1,3,3,5,7-pentamethyl-5-(pyridin-3-yl)octahydrobenzo[c]isoxazole]	1000 to 35000
CCC1CC(CC)[C@@H]2[C@@H](C1)C(C)(C)ON2CC (mixture of isomers) [Compound 116, rac-(3aR,7aR)-1,5,7-triethyl-3,3-dimethyloctahydrobenzo[c]isoxazole]	1000 to 35000
C[C@H]1C[C@@](C)(c2cccc3ccccc23)C[C@@H]2[C@@H]1N(C)OC2(C)C (racemic) [Compound 44, rac-(3aR,5R,7S,7aR)-1,3,3,5,7-pentamethyl-5-(naphthalen-1-yl)octahydrobenzo[c]isoxazole]	300 to 1000
COc1ccc([C@]2(C)C[C@@H](C)[C@@H]3[C@@H](C2)C(C)(C)ON3C)cc1 (racemic) [Compound 36, rac-(3aR,5R,7R,7aR)-5-(4-methoxyphenyl)-1,3,3,5,7-pentamethyloctahydrobenzo[c]isoxazole]	1000 to 35000
CCCC[C@@H]1CC[C@@H]2[C@@H](C1)C(C)(C)ON2C (racemic) [Compound 27, rac-(3aR,5R,7aR)-5-butyl-1,3,3-trimethyloctahydrobenzo[c]isoxazole]	300 to 1000
CC1CCC2C(C1)N(C)OC2(C)C (stereo not drawn) [Compound 6, 1,3,3,6-tetramethyloctahydrobenzo[c]isoxazole]	1000 to 35000
CCC1(CC)C[C@@H]2[C@@H]([C@@H](C)C1)N(C)OC2(C)C (racemic) [Compound 118, rac-(3aR,7S,7aR)-5,5-diethyl-1,3,3,7-tetramethyloctahydrobenzo[c]isoxazole]	1000 to 35000
CSc1ccc([C@@]2(C)C[C@@H]3[C@@H]([C@@H](C)C2)N(C)OC3(C)C)cc1 (racemic) [Compound 40, rac-(3aR,5R,7S,7aR)-1,3,3,5,7-pentamethyl-5-(4-(methylthio)phenyl)octahydrobenzo[c]isoxazole]	50 to 300
Cc1ccc([C@H]2C[C@@H]3[C@@H]([C@@H](C)C2)N(C)OC3(C)C)c(C)c1 (racemic) [Compound 72, rac-(3aR,5R,7S,7aR)-5-(2,4-dimethylphenyl)-1,3,3,7-tetramethyloctahydrobenzo[c]isoxazole]	50 to 300
CC1CC(C)C2C(C1)C1(CCCC1)ON2C(C)C (stereo not drawn) [Compound 13, 1-isopropyl-5,7-dimethylhexahydro-1H-spiro[benzo[c]isoxazole-3,1-cyclopentane]]	1000 to 35000
CCc1ccccc1[C@H]1C[C@@H]2[C@@H]([C@@H](C)C1)N(C)OC2(C)C (racemic) [Compound 79, rac-(3aR,5R,7S,7aR)-5-(2-ethylphenyl)-1,3,3,7-tetramethyloctahydrobenzo[c]isoxazole]	1000 to 35000
C[C@H]1C[C@@](C)(c2ccc(F)c(F)c2)C[C@@H]2[C@@H]1N(C)OC2(C)C (racemic) [Compound 84, rac-(3aR,5R,7S,7aR)-5-(3,4-difluorophenyl)-1,3,3,5,7-pentamethyloctahydrobenzo[c]isoxazole]	50 to 300
Cc1cc(C)cc([C@@]2(C)C[C@@H]3[C@@H]([C@@H](C)C2)N(C)OC3(C)C)c1 (racemic) [Compound 87, rac-(3aR,5R,7S,7aR)-5-(3,5-dimethylphenyl)-1,3,3,5,7-pentamethyloctahydrobenzo[c]isoxazole]	300 to 1000
Cc1ccc(C(F)(F)F)cc1[C@@]1(C)C[C@@H]2[C@@H]([C@@H](C)C1)N(C)OC2(C)C (racemic) [Compound 39, rac-(3aR,5R,7S,7aR)-1,3,3,5,7-pentamethyl-5-(2-methyl-5-(trifluoromethyl)phenyl)octahydrobenzo[c]isoxazole]	300 to 1000
CCN1OC(C)(C)[C@@H]2C[C@](C)(CC=C(C)C)C[C@@H](C)[C@H]21 (racemic) [Compound 32, rac-(3aR,5R,7R,7aR)-1-ethyl-3,3,5,7-tetramethyl-5-(3-methylbut-2-en-1-yl)octahydrobenzo[c]isoxazole]	1000 to 35000
Cc1ccc(Cl)cc1[C@H]1C[C@@H]2[C@@H]([C@@H](C)C1)N(C(C)C)OC2(C)C (racemic) [Compound 106, rac-(3aR,5R,7S,7aR)-5-(5-chloro-2-methylphenyl)-1-isopropyl-3,3,7-trimethyloctahydrobenzo[c]isoxazole]	300 to 1000
COc1ccc(OC)c(C2(C)CC(C)C3C(C2)C(C)(C)ON3C)c1 (stereo not drawn) [Compound 17, 5-(2,5-dimethoxyphenyl)-1,3,3,5,7-pentamethyloctahydrobenzo[c]isoxazole]	50 to 300
Cc1c(Cl)cccc1[C@H]1C[C@@H]2[C@@H]([C@@H](C)C1)N(C(C)C)OC2(C)C (racemic) [Compound 90, rac-(3aR,5R,7S,7aR)-5-(3-chloro-2-methylphenyl)-1-isopropyl-3,3,7-trimethyloctahydrobenzo[c]isoxazole]	50 to 300

The next lines start with the values.

EC50 [nM]	Compound
50 to 300	Cc1ccc([C@@]2(C)C[C@@H]3[C@@H]([C@@H](C)C2)N(C)OC3(C)C)c(C)c1 (racemic) [Compound 71, rac-(3aR,5R,7S,7aR)-5-(2,4-dimethylphenyl)-1,3,3,5,7-pentamethyloctahydrobenzo[c]isoxazole]
50 to 300	Cc1cccc([C@@]2(C)C[C@@H]3[C@@H]([C@@H](C)C2)N(C)OC3(C)C)c1 (racemic) [Compound 43, rac-(3aR,5R,7S,7aR)-1,3,3,5,7-pentamethyl-5-(m-tolyl)octahydrobenzo[c]isoxazole]
< 50	Cc1ccc(C#N)cc1[C@@]1(C)C[C@@H]2[C@@H]([C@@H](C)C1)N(C)OC2(C)C (stereo in doubt) [Compound 138, rel-4-methyl-3-((3aR,5R,7S,7aR)-1,3,3,5,7-pentamethyloctahydrobenzo[c]isoxazol-5-yl)benzonitrile]
< 50	Cc1ccc(F)cc1[C@@]1(C)C[C@@H]2[C@@H]([C@@H](C)C1)N(C)OC2(C)C (racemic) [Compound 107, rac-(3aR,5R,7S,7aR)-5-(5-fluoro-2-methylphenyl)-1,3,3,5,7-pentamethyloctahydrobenzo[c]isoxazole]
50 to 300	CSc1ccccc1[C@@]1(C)C[C@@H]2[C@@H]([C@@H](C)C1)N(C)OC2(C)C (racemic) [Compound 37, rac-(3aR,5R,7S,7aR)-1,3,3,5,7-pentamethyl-5-(2-(methylthio)phenyl)octahydrobenzo[c]isoxazole]
300 to 1000	Cc1cccc(C)c1[C@@]1(C)C[C@@H]2[C@@H]([C@@H](C)C1)N(C)OC2(C)C (racemic) [Compound 76, rac-(3aR,5R,7S,7aR)-5-(2,6-dimethylphenyl)-1,3,3,5,7-pentamethyloctahydrobenzo[c]isoxazole]
50 to 300	Cc1cccc([C@@]2(C)C[C@@H]3[C@@H]([C@@H](C)C2)N(C)OC3(C)C)c1C (racemic) [Compound 69, rac-(3aR,5R,7S,7aR)-5-(2,3-dimethylphenyl)-1,3,3,5,7-pentamethyloctahydrobenzo[c]isoxazole]
< 50	Cc1cc(F)ccc1[C@@]1(C)C[C@@H]2[C@@H]([C@@H](C)C1)N(C)OC2(C)C (racemic) [Compound 100, rac-(3aR,5R,7S,7aR)-5-(4-fluoro-2-methylphenyl)-1,3,3,5,7-pentamethyloctahydrobenzo[c]isoxazole]
300 to 1000	CCOc1ccccc1[C@@]1(C)C[C@@H]2[C@@H]([C@@H](C)C1)N(C)OC2(C)C (racemic) [Compound 77, rac-(3aR,5R,7S,7aR)-5-(2-ethoxyphenyl)-1,3,3,5,7-pentamethyloctahydrobenzo[c]isoxazole]
